Among the data in ChEMBL document CHEMBL5550160, “Leveraging a rationally designed veliparib-based anilide eliciting anti-leukemic effects for the design of pH-responsive polymer nanoformulation” (Eur J Med Chem, 2024) are Activity and IC50 values, retold here.

Activity calls are given as the source filed them. The rule behind the calls is not given here.

For experiment [1], the system named is HL-60. The experiment in a line: Downregulation of HDAC3 protein expression in human HL-60 cells at 0.5 to 1 times IC50 by Western blot analysis. Type of experiment: functional, cell-based.
Experiment [2] addresses T1, Histone deacetylase 3 (Homo sapiens, UniProt O15379). The experiment in a line: Inhibition of HDAC3 (unknown origin) using p53 residues 379 to 382 [RHKK(Ac)] as fluorogenic substrate assessed as residual activity at 1.37 x 10^-8M (reference value: 103.08%). Particulars: dose 1.37 10^-8M.
The target of experiment [3] is Histone deacetylase 9 (Homo sapiens) (UniProt Q9UKV0). Briefly: Inhibition of HDAC9 (unknown origin) assessed as residual activity at 1 x 10^-5M (reference value: 97.55%). The note with it: dose 1.0 10^-5M.
Chain of Histone deacetylase 9 (Homo sapiens) (Q9UKV0 whole entry, the tested form may be a part): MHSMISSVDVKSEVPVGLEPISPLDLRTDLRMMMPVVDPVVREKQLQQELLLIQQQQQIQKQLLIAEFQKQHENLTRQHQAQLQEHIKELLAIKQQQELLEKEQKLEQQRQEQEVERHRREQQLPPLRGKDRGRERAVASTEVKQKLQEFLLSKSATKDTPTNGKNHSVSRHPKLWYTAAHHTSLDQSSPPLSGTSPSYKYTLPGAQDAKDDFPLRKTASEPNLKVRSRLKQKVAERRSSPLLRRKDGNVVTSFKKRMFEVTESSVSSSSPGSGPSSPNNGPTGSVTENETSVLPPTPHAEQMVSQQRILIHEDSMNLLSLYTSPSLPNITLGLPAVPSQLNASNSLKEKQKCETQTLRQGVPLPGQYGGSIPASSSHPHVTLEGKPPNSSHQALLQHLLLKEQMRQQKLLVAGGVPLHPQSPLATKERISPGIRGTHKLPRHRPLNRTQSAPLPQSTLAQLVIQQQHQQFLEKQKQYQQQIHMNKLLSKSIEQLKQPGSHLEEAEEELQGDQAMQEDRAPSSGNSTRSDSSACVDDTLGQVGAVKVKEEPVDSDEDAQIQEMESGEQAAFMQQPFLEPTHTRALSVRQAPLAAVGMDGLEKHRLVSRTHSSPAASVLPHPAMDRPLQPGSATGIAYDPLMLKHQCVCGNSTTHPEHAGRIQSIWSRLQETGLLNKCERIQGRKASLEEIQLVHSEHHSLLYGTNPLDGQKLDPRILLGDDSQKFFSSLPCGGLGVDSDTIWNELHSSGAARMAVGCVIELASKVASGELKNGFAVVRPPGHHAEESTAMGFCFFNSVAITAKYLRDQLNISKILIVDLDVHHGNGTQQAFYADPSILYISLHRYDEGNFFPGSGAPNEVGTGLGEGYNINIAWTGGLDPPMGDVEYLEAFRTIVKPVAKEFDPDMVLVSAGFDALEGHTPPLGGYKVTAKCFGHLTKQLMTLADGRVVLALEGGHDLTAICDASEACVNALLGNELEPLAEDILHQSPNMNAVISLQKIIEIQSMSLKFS
Experiment [4] concerns the target T2, Histone deacetylase 1 (Homo sapiens, UniProt Q13547). Briefly: Inhibition of HDAC1 (unknown origin) using p53 residues 379 to 382 [RHKK(Ac)] as fluorogenic substrate.
The next experiment concerns PC-3. The experiment in a line: cells. Type of experiment: functional, cell-based. The note with it: Homo sapiens.
The test system of the next experiment is SiHa. Briefly: cells. Type of experiment: functional, cell-based. The note with it: Homo sapiens.
The target of experiment [5] is T3, Protein deacetylase HDAC6 (Homo sapiens) (UniProt Q9UBN7).
T3 sequence (whole entry): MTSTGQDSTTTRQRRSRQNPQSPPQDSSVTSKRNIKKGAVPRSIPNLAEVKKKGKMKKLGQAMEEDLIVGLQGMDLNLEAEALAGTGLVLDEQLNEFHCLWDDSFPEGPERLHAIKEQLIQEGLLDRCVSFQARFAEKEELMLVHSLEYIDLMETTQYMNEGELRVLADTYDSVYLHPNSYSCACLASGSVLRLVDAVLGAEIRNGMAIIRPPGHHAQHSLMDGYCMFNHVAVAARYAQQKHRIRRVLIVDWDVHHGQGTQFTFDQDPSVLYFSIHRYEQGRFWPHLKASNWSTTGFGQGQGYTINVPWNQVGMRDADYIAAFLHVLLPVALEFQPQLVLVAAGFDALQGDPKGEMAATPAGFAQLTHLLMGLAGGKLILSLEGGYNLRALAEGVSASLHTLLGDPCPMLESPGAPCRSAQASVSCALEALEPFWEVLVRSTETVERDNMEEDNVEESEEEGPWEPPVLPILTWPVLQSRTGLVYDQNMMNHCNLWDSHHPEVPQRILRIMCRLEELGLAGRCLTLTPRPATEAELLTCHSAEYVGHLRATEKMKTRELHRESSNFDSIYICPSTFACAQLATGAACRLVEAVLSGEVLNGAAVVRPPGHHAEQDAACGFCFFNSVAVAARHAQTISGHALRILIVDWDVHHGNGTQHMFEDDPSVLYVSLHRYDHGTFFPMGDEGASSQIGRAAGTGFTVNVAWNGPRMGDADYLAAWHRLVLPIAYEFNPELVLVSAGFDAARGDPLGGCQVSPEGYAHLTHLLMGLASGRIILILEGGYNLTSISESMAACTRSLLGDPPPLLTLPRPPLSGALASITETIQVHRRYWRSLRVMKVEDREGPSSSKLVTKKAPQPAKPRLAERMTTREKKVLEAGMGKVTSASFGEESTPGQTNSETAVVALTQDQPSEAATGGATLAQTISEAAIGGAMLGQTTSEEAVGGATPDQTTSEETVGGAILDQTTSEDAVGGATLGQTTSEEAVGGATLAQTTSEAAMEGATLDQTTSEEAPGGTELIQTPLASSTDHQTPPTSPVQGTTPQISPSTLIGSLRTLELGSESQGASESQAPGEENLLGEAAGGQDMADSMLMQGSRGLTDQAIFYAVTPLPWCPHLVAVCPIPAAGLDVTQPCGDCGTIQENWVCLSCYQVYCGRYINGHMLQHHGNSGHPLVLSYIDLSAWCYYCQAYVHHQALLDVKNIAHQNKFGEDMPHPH
Briefly: Inhibition of HDAC6 (unknown origin) using p53 residues 379 to 382 [RHKK(Ac)] as fluorogenic substrate assessed as residual activity at 3.33 x 10^-6M (reference value: 101.06%). The note with it: dose 3.33 10^-6M.

The target of experiment [6] is T2, Histone deacetylase 1. Briefly: Inhibition of HDAC1 (unknown origin) using p53 residues 379 to 382 [RHKK(Ac)] as fluorogenic substrate assessed as residual activity at 4.12 x 10^-8M (reference value: 98.06%). The note with it: dose 4.12 10^-8M.
In experiment [7] the target is Histone deacetylase 9 (Homo sapiens) (UniProt Q9UKV0). The experiment in a line: Inhibition of HDAC9 (unknown origin) assessed as residual activity at 1.1 x 10^-6M (reference value: 97.55%). The note with it: dose 1.1 10^-6M.
Another experiment addresses Histone deacetylase 2 (Homo sapiens, UniProt Q92769). Briefly: Inhibition of HDAC2 (unknown origin).
Experiment [8] deals with HL-60. The experiment in a line: Induction of apoptosis in human HL-60 cells assessed as cell blebbing at 0.5 to 1 times IC50 by DAPI staining based microscopic analysis. Type of experiment: functional.
Experiment [9] has as its target Histone deacetylase 9 (Homo sapiens) (UniProt Q9UKV0). The experiment in a line: Inhibition of HDAC9 (unknown origin) assessed as residual activity at 1.52 x 10^-9M (reference value: 97.55%). The note with it: dose 1.52 10^-9M.
Experiment [10] deals with Histone deacetylase 4 (Homo sapiens) (UniProt P56524). Briefly: Inhibition of HDAC4 (unknown origin) assessed as residual activity at 1.52 x 10^-9M (reference value: 98.90%). The note with it: dose 1.52 10^-9M.
Chain of Histone deacetylase 4 (Homo sapiens) (P56524 whole entry): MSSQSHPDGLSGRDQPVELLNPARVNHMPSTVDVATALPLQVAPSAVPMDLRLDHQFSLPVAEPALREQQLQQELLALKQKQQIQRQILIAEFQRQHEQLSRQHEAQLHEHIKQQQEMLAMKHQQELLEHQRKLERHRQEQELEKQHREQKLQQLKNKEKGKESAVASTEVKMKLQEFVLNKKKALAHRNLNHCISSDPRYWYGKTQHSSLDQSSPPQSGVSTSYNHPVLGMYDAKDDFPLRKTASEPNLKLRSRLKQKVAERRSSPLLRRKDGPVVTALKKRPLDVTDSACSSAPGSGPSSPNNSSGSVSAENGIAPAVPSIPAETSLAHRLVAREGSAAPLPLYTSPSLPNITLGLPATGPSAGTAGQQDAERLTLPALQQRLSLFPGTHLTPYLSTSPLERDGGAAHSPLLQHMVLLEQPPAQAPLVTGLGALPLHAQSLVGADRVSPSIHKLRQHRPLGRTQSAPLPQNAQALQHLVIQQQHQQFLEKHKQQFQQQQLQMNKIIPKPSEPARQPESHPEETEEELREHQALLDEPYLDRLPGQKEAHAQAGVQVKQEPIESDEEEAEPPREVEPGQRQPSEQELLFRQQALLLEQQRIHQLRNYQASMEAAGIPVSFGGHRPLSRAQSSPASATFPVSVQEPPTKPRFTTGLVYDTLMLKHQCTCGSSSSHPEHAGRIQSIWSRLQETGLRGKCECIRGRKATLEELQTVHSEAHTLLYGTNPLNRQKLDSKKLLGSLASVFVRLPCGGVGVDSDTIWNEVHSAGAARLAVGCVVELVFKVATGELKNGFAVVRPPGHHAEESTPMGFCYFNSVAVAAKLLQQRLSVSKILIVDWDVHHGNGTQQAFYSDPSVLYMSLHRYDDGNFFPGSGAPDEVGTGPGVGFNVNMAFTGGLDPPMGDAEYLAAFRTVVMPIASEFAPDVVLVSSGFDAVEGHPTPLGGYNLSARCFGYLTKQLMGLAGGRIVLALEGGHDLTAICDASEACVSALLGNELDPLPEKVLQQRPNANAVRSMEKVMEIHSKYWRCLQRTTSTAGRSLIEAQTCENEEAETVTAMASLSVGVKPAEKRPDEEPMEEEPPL
For experiment [11] the target is unchanged. The experiment in a line: Inhibition of HDAC4 (unknown origin) assessed as residual activity at 3.70 x 10^-7M (reference value: 98.90%). The note with it: dose 3.7 10^-7M.
For experiment [12], the target named is T1, Histone deacetylase 3. Briefly: Inhibition of HDAC3 (unknown origin) using p53 residues 379 to 382 [RHKK(Ac)] as fluorogenic substrate assessed as residual activity at 1.23 x 10^-7M (reference value: 103.08%). Particulars: dose 1.23 10^-7M.
Experiment [13] concerns the target T4, Histone deacetylase 8 (Homo sapiens) (UniProt Q9BY41).
T4 sequence (whole entry): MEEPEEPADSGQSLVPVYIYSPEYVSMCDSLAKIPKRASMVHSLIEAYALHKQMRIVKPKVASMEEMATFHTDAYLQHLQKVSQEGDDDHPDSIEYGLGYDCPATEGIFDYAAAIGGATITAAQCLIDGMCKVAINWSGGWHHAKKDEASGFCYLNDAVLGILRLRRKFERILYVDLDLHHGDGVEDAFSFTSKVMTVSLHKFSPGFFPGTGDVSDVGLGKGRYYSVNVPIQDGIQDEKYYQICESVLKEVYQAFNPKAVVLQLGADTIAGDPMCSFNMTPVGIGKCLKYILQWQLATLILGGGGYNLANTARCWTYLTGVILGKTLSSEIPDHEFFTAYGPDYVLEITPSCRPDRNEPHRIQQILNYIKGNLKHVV
Briefly: Inhibition of HDAC8 (unknown origin) assessed as residual activity at 1.23 x 10^-7M (reference value: 100%). Particulars: dose 1.23 10^-7M.

Experiment [14] addresses T3, Protein deacetylase HDAC6 (Homo sapiens). The experiment in a line: Inhibition of HDAC6 (unknown origin) using p53 residues 379 to 382 [RHKK(Ac)] as fluorogenic substrate assessed as residual activity at 5.08 x 10^-10M (reference value: 101.06%). The note with it: dose 5.08 10^-10M.
Experiment [15] addresses Histone deacetylase 9 (Homo sapiens) (UniProt Q9UKV0). Briefly: Inhibition of HDAC9 (unknown origin) assessed as residual activity at 3.70 x 10^-7M (reference value: 97.55%). Particulars: dose 3.7 10^-7M.

T1 sequence (O15379 whole entry, the tested form may be a part): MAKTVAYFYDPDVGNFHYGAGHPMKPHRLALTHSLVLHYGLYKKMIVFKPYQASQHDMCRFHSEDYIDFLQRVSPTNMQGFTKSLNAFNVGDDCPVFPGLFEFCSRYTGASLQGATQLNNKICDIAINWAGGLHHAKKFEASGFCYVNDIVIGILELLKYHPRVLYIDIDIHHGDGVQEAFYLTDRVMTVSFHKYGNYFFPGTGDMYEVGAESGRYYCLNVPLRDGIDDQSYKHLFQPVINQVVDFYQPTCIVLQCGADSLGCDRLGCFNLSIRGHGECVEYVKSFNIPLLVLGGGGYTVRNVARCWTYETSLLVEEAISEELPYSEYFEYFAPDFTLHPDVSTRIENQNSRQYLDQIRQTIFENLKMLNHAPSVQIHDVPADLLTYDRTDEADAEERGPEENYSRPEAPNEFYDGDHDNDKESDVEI
T2 sequence (Q13547 whole entry, the tested form may be a part): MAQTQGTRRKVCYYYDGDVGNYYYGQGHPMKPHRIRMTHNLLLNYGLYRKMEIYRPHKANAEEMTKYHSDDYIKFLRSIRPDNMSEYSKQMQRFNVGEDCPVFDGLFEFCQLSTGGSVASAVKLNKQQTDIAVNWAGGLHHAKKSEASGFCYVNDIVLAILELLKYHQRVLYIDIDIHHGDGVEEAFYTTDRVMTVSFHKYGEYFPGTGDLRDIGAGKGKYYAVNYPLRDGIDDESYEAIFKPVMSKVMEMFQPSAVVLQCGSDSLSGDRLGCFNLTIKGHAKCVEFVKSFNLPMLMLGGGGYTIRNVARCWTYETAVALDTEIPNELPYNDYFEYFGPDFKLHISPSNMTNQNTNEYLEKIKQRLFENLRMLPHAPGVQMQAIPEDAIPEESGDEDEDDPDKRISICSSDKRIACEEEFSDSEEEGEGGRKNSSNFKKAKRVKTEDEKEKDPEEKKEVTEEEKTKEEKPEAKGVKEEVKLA
Chain of Histone deacetylase 2 (Q92769 whole entry): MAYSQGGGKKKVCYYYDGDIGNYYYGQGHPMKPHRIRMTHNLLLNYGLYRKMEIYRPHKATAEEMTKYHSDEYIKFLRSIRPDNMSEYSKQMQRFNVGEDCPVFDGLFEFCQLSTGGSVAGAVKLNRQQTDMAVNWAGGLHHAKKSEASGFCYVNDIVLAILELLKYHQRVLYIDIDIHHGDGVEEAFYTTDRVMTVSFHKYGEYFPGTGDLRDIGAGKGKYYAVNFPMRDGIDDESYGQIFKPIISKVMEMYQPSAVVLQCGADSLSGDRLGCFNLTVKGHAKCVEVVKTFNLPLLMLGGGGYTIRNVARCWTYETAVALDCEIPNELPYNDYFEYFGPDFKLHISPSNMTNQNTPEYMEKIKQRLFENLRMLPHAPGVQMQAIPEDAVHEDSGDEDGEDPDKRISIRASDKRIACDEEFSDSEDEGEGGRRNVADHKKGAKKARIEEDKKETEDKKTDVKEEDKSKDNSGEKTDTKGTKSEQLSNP
Description for PC-3: Antiproliferative activity against human PC-3 cells assessed as inhibition of cell growth by MTT assay
Description for SiHa: Antiproliferative activity against human SiHa cells assessed as inhibition of cell growth by MTT assay

The IC50 is the concentration needed to halve the response being measured. The low end stands for greater potency, the high end for weaker potency. In the case of `NC(=O)c1cccc2[nH]c(-c3ccc(NCc4ccc(C(=O)Nc5ccccc5N)cc4)cc3)nc12`, in the experiment on HL-60 [1], the result was Active. Besides, the Activity at Histone deacetylase 3 [2] worked out at 110%; in [3], 100%; in [5], 105%; on Histone deacetylase 1 [6], 51.3%; in experiment [7], 93%; in [9] it was 97.8%. Also, the Activity in experiment [10] was found to be 94.7%; in [11] it was 108%; at Histone deacetylase 3 [12], 84.1%; in [13], 104%; in experiment [14], 101%; in experiment [15], 92.6%. Further, the IC50 against Histone deacetylase 1 [4] is 0.05 µM; with PC-3 it was 4.01 µM; in the experiment on SiHa, > 10 µM; at Histone deacetylase 2 it was 0.147 µM. The outcome in the experiment with HL-60 [8] was inactive.
